Laboratory results reported in ChEMBL document CHEMBL1201862, “PubChem BioAssay data set” (2004).
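Where inhibition never reached the appropriate level, the endpoint shown equals the highest concentration tested. Otherwise, values were interpolated linearly from a five-concentration, 48-hour dose response in 96-well plates. Abbreviation: GI50, concentration required for 50% inhibition of growth.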 The source made the active and inactive calls. Cut-off read from the data, not from the text of the source: active = GI50 up to about 1.1 µM and inactive = higher.

What was measured:
Assay in all cases: DTP human tumour cell line panel, 48 h
RXF 393 = system: RXF 393
HL-60 = system: HL-60
Hs-578T = system: Hs-578T
DLD-1 = system: DLD-1
SF-268 = system: SF-268
K562 = system: K562
A549 = system: A549
UACC-257 = system: UACC-257
OVCAR-3 = system: OVCAR-3
MDA-MB-231 = system: MDA-MB-231
BT-549 = system: BT-549
786-0 = system: 786-0
NCI-H460 = system: NCI-H460
SK-MEL-2 = system: SK-MEL-2
TK-10 = system: TK-10
HOP-92 = system: HOP-92
HCC 2998 = system: HCC 2998
T47D = system: T47D
ACHN = system: ACHN
MCF7 = system: MCF7

Measured: GI50

S=P(N1CC1)(N1CC1)N1CC1 [THIOTEPA]
inactive: RXF 393 101 µM | HL-60 7.45 µM | Hs-578T 361 µM | DLD-1 195 µM | SF-268 39.4 µM | K562 143 µM | A549 50.4 µM | UACC-257 134 µM | OVCAR-3 169 µM | MDA-MB-231 274 µM | BT-549 175 µM | 786-0 39.8 µM | NCI-H460 5.33 µM | SK-MEL-2 220 µM | TK-10 333 µM | HOP-92 112 µM | HCC 2998 111 µM | T47D 171 µM | ACHN 14.6 µM | MCF7 30.7 µM

Cc1ccccc1C1=C/C(=C(\SS/C(C(=O)c2ccc(OCC(=O)O)c(Cl)c2Cl)=C2\C=C(c3ccccc3C)SS2)C(=O)c2ccc(OCC(=O)O)c(Cl)c2Cl)SS1
inactive: RXF 393 22.4 µM | HL-60 2.96 µM | Hs-578T 21.2 µM | DLD-1 23.8 µM | SF-268 18 µM | K562 8.65 µM | A549 46.9 µM | UACC-257 29.4 µM | OVCAR-3 16.5 µM | MDA-MB-231 22.6 µM | BT-549 33.3 µM | 786-0 33.3 µM | NCI-H460 26.4 µM | SK-MEL-2 21.4 µM | TK-10 35.9 µM | HOP-92 5.51 µM | HCC 2998 39.4 µM | T47D 5.16 µM | ACHN 23.2 µM | MCF7 31.4 µM

C[C@H]1CC[C@H](NC(=O)N(CCCl)N=O)CC1
inactive: RXF 393 36 µM | HL-60 14.4 µM | Hs-578T 57.4 µM | DLD-1 39.5 µM | SF-268 22.1 µM | K562 34.3 µM | A549 51.3 µM | UACC-257 46.3 µM | OVCAR-3 42.1 µM | MDA-MB-231 48 µM | BT-549 24.7 µM | 786-0 31.6 µM | NCI-H460 39.1 µM | SK-MEL-2 46.5 µM | TK-10 63.4 µM | HOP-92 24.4 µM | HCC 2998 44 µM | T47D 29.7 µM | ACHN 49.4 µM | MCF7 50.4 µM

COc1ccc(/C=N/N=C(\N)NO)cc1OC
inactive: RXF 393 30.5 µM | HL-60 63.1 µM | DLD-1 60.1 µM | SF-268 20.4 µM | K562 11.5 µM | A549 28.4 µM | UACC-257 90.4 µM | OVCAR-3 > 100 µM | 786-0 31 µM | NCI-H460 33.7 µM | SK-MEL-2 58.5 µM | TK-10 56.4 µM | HOP-92 84.7 µM | HCC 2998 > 100 µM | ACHN 25.6 µM
